A value given as a limit tells only on which side of the number the result lay.

In one assay the target is T1, human PAH with the R408W mutation (Homo sapiens, UniProt P00439, R408W).
T1 construct: expressed in transfected cells
T1 sequence (P00439 1-452 R408W): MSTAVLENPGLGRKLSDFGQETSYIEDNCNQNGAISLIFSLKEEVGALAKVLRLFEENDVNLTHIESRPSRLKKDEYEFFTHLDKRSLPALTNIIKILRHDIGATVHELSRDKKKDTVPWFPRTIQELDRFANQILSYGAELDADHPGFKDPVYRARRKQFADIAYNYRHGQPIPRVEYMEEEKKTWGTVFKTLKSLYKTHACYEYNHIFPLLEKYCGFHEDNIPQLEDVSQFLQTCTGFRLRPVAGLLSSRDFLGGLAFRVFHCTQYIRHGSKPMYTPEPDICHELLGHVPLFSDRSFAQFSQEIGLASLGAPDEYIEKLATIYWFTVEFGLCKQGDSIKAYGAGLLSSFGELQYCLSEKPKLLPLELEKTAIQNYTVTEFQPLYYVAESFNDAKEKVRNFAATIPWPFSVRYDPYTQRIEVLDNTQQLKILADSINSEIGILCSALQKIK
Briefly: Cell Based Phenylalanine Flux Assay. The settings on record: A375 cells expressing human R408W PAH; 24 hrs compound incubation; 13C-Tyrosine by LC-MS; average where tested multiple times; read-out: AC50.
With `O=C(CCc1nccs1)N1CCc2[nH]cnc2[C@@H]1c1ncc(Br)s1` [Example 2149, (R)-1-(4-(5-bromothiazol-2-yl)-6,7-dihydro-1H-imidazo[4,5-c]pyridin-5(4H)-yl)-3-(thiazol-2-yl)propan-1-one], the AC50 (commonly the concentration at which the activity in the assay is half-maximal) was above 5000 nM.

In the case of `Cc1cnc(C(=O)N2CCc3[nH]cnc3[C@H]2c2nc3ccccc3s2)s1` [Example 1055], the AC50 lay within 500 to 1000 nM.

For `CC1(C)CCC(c2ncc(C(=O)N3CCc4[nH]cnc4[C@H]3c3nc4ccccc4s3)s2)CC1` [Example 1353], the AC50 was below 500 nM.

Turning to `O=C(c1cnn2ccccc12)N1CCc2[nH]cnc2[C@@H]1c1nc2ccc(Br)cc2[nH]1` [Example 941, (R)-(4-(6-bromo-1H-benzo[d]imidazol-2-yl)-6,7-dihydro-1H-imidazo[4,5-c]pyridin-5(4H)-yl)(pyrazolo[1,5-a]pyridin-3-yl)methanone], the AC50 lay in the range of 1000 to 5000 nM.

Consider `O=C(c1cnn2cc(F)ccc12)N1CCc2[nH]cnc2[C@H]1c1nc2cc(F)ccc2s1` [Example 1333, (S)-(4-(5-fluorobenzo[d]thiazol-2-yl)-6,7-dihydro-1H-imidazo[4,5-c]pyridin-5(4H)-yl)(6-fluoropyrazolo[1,5-a]pyridin-3-yl)methanone], for which the AC50 is 500 to 1000 nM.

For the compound `O=C(c1cn(CC(F)F)nc1Cl)N1CCc2[nH]cnc2[C@H]1c1nc2c(F)cccc2s1` [Example 1981, (S)-(3-chloro-1-(2,2-difluoroethyl)-1H-pyrazol-4-yl)(4-(4-fluorobenzo[d]thiazol-2-yl)-6,7-dihydro-1H-imidazo[4,5-c]pyridin-5(4H)-yl)methanone], the AC50 is below 500 nM.

On to `Cc1nc(C)c(C(=O)N2CCc3[nH]cnc3[C@H]2c2nc3ccccc3s2)o1` [Example 1163], for which the AC50 was below 500 nM.

With `CC(O)c1nc(Cl)c(C(=O)N2CCc3[nH]cnc3[C@H]2c2nc3c(F)cccc3s2)o1` (single isomer, unassigned) [Example 2080], the AC50 lay within 500 to 1000 nM.

With `O=C(CCc1nccs1)N1CCc2[nH]cnc2[C@H]1c1nc2ccccc2s1` [Example 1003], the AC50 was in the range of 500 to 1000 nM.

On to `Cc1nc(C(C)(C)F)oc1C(=O)N1CCc2[nH]cnc2[C@H]1c1nc2ccccc2s1` [Example 1497], for which the AC50 is below 500 nM.

With `Cc1nc(C2CC2)oc1C(=O)N1CCc2[nH]cnc2[C@H]1c1nc2ccccc2s1` [Example 1395], the AC50 is below 500 nM.

Turning to `O=C(c1nccs1)N1CCc2[nH]cnc2[C@@H]1c1nc2c(Cl)cccc2s1` [Example 1202, (R)-(4-(4-chlorobenzo[d]thiazol-2-yl)-6,7-dihydro-1H-imidazo[4,5-c]pyridin-5(4H)-yl)(thiazol-2-yl)methanone], the AC50 was in the range of 1000 to 5000 nM.

Take `O=C(c1cnc(-c2cnn(CC(F)(F)F)c2)s1)N1CCc2[nH]cnc2[C@@H]1c1nc2ccccc2s1` [Example 1362, (R)-(4-(benzo[d]thiazol-2-yl)-6,7-dihydro-1H-imidazo[4,5-c]pyridin-5(4H)-yl)(2-(1-(2,2,2-trifluoroethyl)-1H-pyrazol-4-yl)thiazol-5-yl)methanone]: the AC50 lay within 1000 to 5000 nM.

As for `Nc1cc(C(=O)N2CCc3[nH]cnc3[C@H]2c2nc3c(F)cccc3s2)n(C(F)F)n1` [Example 2053, (S)-(3-amino-1-(difluoromethyl)-1H-pyrazol-5-yl)(4-(4-fluorobenzo[d]thiazol-2-yl)-6,7-dihydro-1H-imidazo[4,5-c]pyridin-5(4H)-yl)methanone], the AC50 was in the range of 500 to 1000 nM.

On to `CC(C)(O)Cn1cc(C(=O)N2CCc3[nH]cnc3[C@@H]2c2nc3c(F)cccc3s2)c(Cl)n1` [Example 1993, (R)-(3-chloro-1-(2-hydroxy-2-methylpropyl)-1H-pyrazol-4-yl)(4-(4-fluorobenzo[d]thiazol-2-yl)-6,7-dihydro-1H-imidazo[4,5-c]pyridin-5(4H)-yl)methanone], for which the AC50 was in the range of 1000 to 5000 nM.

As for `O=C(c1nccs1)N1CCc2[nH]cnc2[C@H]1c1nc2ccc(Br)cc2[nH]1` [Example 933, (S)-(4-(6-bromo-1H-benzo[d]imidazol-2-yl)-6,7-dihydro-1H-imidazo[4,5-c]pyridin-5(4H)-yl)(thiazol-2-yl)methanone], the AC50 was 1000 to 5000 nM.

With `CC(C)n1ncnc1C(=O)N1CCc2[nH]cnc2[C@H]1c1nc2ccccc2s1` [Example 2037], the AC50 is below 500 nM.

Consider `Cn1cc(C(=O)N2CCc3[nH]cnc3[C@@H]2c2nc3c(F)cccc3s2)c(C(F)(F)F)n1` [Example 1614, (R)-(4-(4-fluorobenzo[d]thiazol-2-yl)-6,7-dihydro-1H-imidazo[4,5-c]pyridin-5(4H)-yl)(1-methyl-3-(trifluoromethyl)-1H-pyrazol-4-yl)methanone], for which the AC50 was below 500 nM.

Regarding `O=C(c1oc(NC2CC2)nc1C(F)F)N1CCc2[nH]cnc2[C@@H]1c1nc2ccccc2s1` [Example 1716, (R)-(4-(benzo[d]thiazol-2-yl)-6,7-dihydro-1H-imidazo[4,5-c]pyridin-5(4H)-yl)(2-(cyclopropylamino)-4-(difluoromethyl)oxazol-5-yl)methanone], the AC50 lay within 1000 to 5000 nM.

As for `Nc1nc(C(F)(F)F)c(C(=O)N2CCc3[nH]cnc3[C@H]2c2nc3ccccc3s2)o1` [Example 1533], the AC50 was below 500 nM.

Regarding `O=C(c1oc(NC2CC2)nc1C(F)(F)F)N1CCCc2[nH]cnc2[C@H]1c1nc2ccccc2s1` [Example 2127, (S)-(4-(benzo[d]thiazol-2-yl)-7,8-dihydroimidazo[4,5-c]azepin-5(1H,4H,6H)-yl)(2-(cyclopropylamino)-4-(trifluoromethyl)oxazol-5-yl)methanone], the AC50 lay within 1000 to 5000 nM.

On to `O=C(c1cnc(-c2ccc(C(F)(F)F)cn2)s1)N1CCc2[nH]cnc2[C@H]1c1nc2ccccc2s1` [Example 1349], for which the AC50 lay in the range of 1000 to 5000 nM.

The same assay, now with this note: A375 cells expressing human R408W PAH; 24 hrs with compound; 13C-Tyrosine by LC-MS; average where tested multiple times; read-out: AC50.
Regarding `O=C(c1nnc(CCN2CC(F)C2)o1)N1CCc2[nH]cnc2C1c1nc2ccccc2s1` (stereo not drawn), the AC50 lay in the range of 1000 to 5000 nM.

Turning to `Cc1noc(C(=O)N2CCc3[nH]cnc3C2c2nc3ccccc3s2)n1` (stereo not drawn), the AC50 was 1000 to 5000 nM.

With `COc1cccc(CCC(=O)N2CCc3[nH]cnc3C2c2nc3ccccc3[nH]2)c1` (stereo not drawn), the AC50 fell in the range of 1000 to 5000 nM.

In the case of `COC1CN(C(=O)N2CCc3[nH]cnc3C2c2nc3ccccc3s2)C1` (stereo not drawn), the AC50 lay within 1000 to 5000 nM.

Regarding `CC(=O)N1CCc2[nH]cnc2[C@H]1c1nc2ccccc2s1` (single isomer, unassigned), the concentration at half-maximal activity (AC50) is 1000 to 5000 nM.

On to `O=C(Cc1ccc(F)cc1)N1CCc2[nH]cnc2[C@H]1c1nc2ccccc2[nH]1` [(S)-1-(4-(1H-benzo[d]imidazol-2-yl)-1,4,6,7-tetrahydro-5H-imidazo[4,5-c]pyridin-5-yl)-2-(4-fluorophenyl)ethan-1-one], for which the AC50 was 1000 to 5000 nM.

Take `O=C(c1nc2ccncc2s1)N1CCc2[nH]cnc2C1c1nc2ccccc2[nH]1` (stereo not drawn): the AC50 is above 5000 nM.

For `Cc1nc(CN2CCOCC2)oc1C(=O)N1CCCc2[nH]cnc2C1c1nc2ccccc2s1` (stereo not drawn), the AC50 is above 5000 nM.

Take `N#Cc1ccn2ncc(C(=O)N3CCc4[nH]cnc4C3c3nc4ccc(Br)cc4[nH]3)c2c1` (stereo not drawn): the AC50 lay within 1000 to 5000 nM.

On to `O=C(c1nnc(-c2ccc(C(F)(F)F)cc2)o1)N1CCc2[nH]cnc2C1c1nc2c(F)cccc2s1` (stereo not drawn), for which the AC50 was in the range of 1000 to 5000 nM.

`O=C(CC1CC1)N1CCc2[nH]cnc2C1c1nc2c(F)cccc2s1` (stereo not drawn): the AC50 is 1000 to 5000 nM.

Consider `Cn1cnc(C(=O)N2CCc3[nH]cnc3C2c2nc3ccccc3s2)n1` (stereo not drawn), for which the AC50 was above 5000 nM.

With `O=C(Cc1nncs1)N1CCc2[nH]cnc2C1c1nc2ccc(F)cc2s1` (stereo not drawn), the AC50 is above 5000 nM.

`O=C(c1cc(Cl)n[nH]1)N1CCc2[nH]cnc2C1c1nc2c(F)cccc2s1` (stereo not drawn): the AC50 was in the range of 1000 to 5000 nM.

Source of the values: patent US20250171438A1 (Agios Pharmaceuticals, Inc., priority 2022, published 2025).
